Data set [1] concerns Hepatotoxicity.
Description: Drug Induced Liver Injury Prediction System (DILIps) validation dataset; compound DILI positive/negative as observed in LTKB-BD
For data set [2], the system named is Hepatotoxicity. This is another data set of the same source.
Description: Drug Induced Liver Injury Prediction System (DILIps) validation dataset; compound DILI positive/negative as observed in Pfizer data
Data set [3] has as its system Hepatotoxicity. This is another data set of the same source.
Description: Drug Induced Liver Injury Prediction System (DILIps) validation dataset; compound DILI positive/negative as observed in O'Brien data

With `O=C(COc1ccc(Cl)cc1)N1CCN(Cc2ccc3c(c2)OCO3)CC1` [FIPEXIDE], the DILI positive/negative in data set [1] and in data set [2] was 1 throughout. Take `CC(C)Cc1ccc(CC(=O)O)cc1` [IBUFENAC]: the DILI positive/negative in data set [1] and in data set [2] was 1 throughout.

As for `CC(N/C(=N\C#N)Nc1ccncc1)C(C)(C)C` (stereo not drawn) [PINACIDIL ANHYDROUS], the DILI positive/negative in data set [3] and in data set [2] was 0 throughout.

Turning to `CC(=O)O[C@H]1C[C@@]2(C)[C@@H](C[C@@H](O)[C@H]3[C@@]4(C)CC[C@@H](O)[C@@H](C)[C@@H]4CC[C@@]32C)/C1=C(\CCC=C(C)C)C(=O)O` [FUSIDIC ACID], in data set [3], the DILI positive/negative was 1. On the same count and under the same terms, as for `COc1ccc(C(=O)NCc2cccnc2)cc1C(=O)NCc1cccnc1` [PICOTAMIDE], the figure is 0.

In turn, `C[C@@H](Cc1ccccc1)N(C)Cc1ccccc1` [BENZPHETAMINE] returned a DILI positive/negative in data set [1] of 0.

`NC(=O)C1CCN(CCCN2c3ccccc3Sc3ccc(Cl)cc32)CC1` [PIPAMAZINE] displayed a DILI positive/negative in data set [1] of 1. On to `COc1ccc2c(C(=O)c3ccc(Cl)cc3)c(C)n(CC(=O)O)c2c1` [CLOMETACIN], for which the DILI positive/negative in data set [1] amounted to 1. Same read-out and setting: as for COLISTIMETHATE, the figure is 0.

`CCCCCCCCNC(C)C(O)c1ccc(SC(C)C)cc1` (stereo not drawn) [SULOCTIDIL] showed a DILI positive/negative in data set [1] of 1.

Consider `O[C@H]1[C@H](O)[C@@H](O)[C@H](O)[C@@H](O)[C@H]1O` [INOSITOL], for which the DILI positive/negative in data set [3] and in data set [2] was 0 throughout. In data set [1], `CC(=O)Oc1ccc(C2(c3ccc(OC(C)=O)cc3)C(=O)N(C(C)=O)c3ccccc32)cc1` [TRIACETYLDIPHENOLISATIN] displayed a DILI positive/negative of 1. With `NC(=O)NS(=O)(=O)c1ccc(N)cc1` [SULFACARBAMIDE], the DILI positive/negative in data set [1] is 1.

In data set [1], `CONC(=N)c1ccc(-c2ccc(-c3ccc(C(=N)NOC)cc3)o2)cc1` [PAFURAMIDINE] had a DILI positive/negative of 1. Same read-out and setting: as for `CN1C(=O)CCS(=O)(=O)C1c1ccc(Cl)cc1` (stereo not drawn) [CHLORMEZANONE], the figure is 1. With `Cc1ncc(C[n+]2csc(CCO)c2C)c(N)n1` [THIAMINE ION], the DILI positive/negative in data set [3] (Liver) and in data set [2] (Liver) was 0 in each case. Molecule `CCN(CC)Cc1cc(Nc2ccnc3cc(Cl)ccc23)ccc1O.Cl` came in with a DILI positive/negative in data set [3] (Liver) of 1.

The molecule `C[S+](C)[O-]` [DIMETHYL SULFOXIDE] registered a DILI positive/negative in data set [3] of 0.

In turn, `C=C[C@H]1C[N@@]2CC[C@H]1C[C@H]2[C@H](O)c1ccnc2ccc(OC)cc12` [QUININE] returned a DILI positive/negative in data set [3] of 1.

In data set [3], `CC[C@]1(O)CC[C@H]2[C@@H]3CCC4=CCCC[C@@H]4[C@H]3CC[C@@]21C` gave a DILI positive/negative of 1. The molecule `CC(C)Nc1ncccn1` [ISAXONINE] gave a DILI positive/negative in data set [1] of 1.

For `CC(C(=O)O)c1ccc(N2CC=CC2)c(Cl)c1` (stereo not drawn) [PIRPROFEN], the DILI positive/negative in data set [1] and in data set [2] was 1 in each case. With `CCc1oc2ccccc2c1C(=O)c1ccc(O)cc1` [BENZARONE], the DILI positive/negative in data set [1] turned out to be 1. On the same count and under the same terms, then `CCOC(Nc1ccc(C(=O)O)cc1)C(=O)c1ccc(-c2ccccc2)cc1` (stereo not drawn) [XENAZOIC ACID], with 1; and `COc1ccc2c(C(=S)N(C)CC(=O)O)cccc2c1C(F)(F)F` [TOLRESTAT], with 1.

Regarding `CC(=O)Oc1ccc(C(c2ccc(OC(C)=O)cc2)c2ccccn2)cc1` [BISACODYL], the DILI positive/negative in data set [3] was 0. On to `CN1CCC(Nc2ncc3ncnc(Nc4ccc(F)c(Cl)c4)c3n2)CC1` [FALNIDAMOL], for which the DILI positive/negative in data set [1] (Liver) stood at 1. Molecule `CCc1oc2ccccc2c1C(=O)c1cc(I)c(O)c(I)c1` [BENZIODARONE] showed a DILI positive/negative in data set [1] of 1. `Nc1ccc(S(=O)(=O)Nc2ccnn2-c2ccccc2)cc1` [SULFAPHENAZOLE]: the DILI positive/negative in data set [3] is reported as 1. Take `CC(N)C(=O)OC(C)(C)Cc1ccc(Cl)cc1` (stereo not drawn) [ALAPROCLATE]: the DILI positive/negative in data set [1] turned out to be 1. The molecule `C[C@H](N)C(=O)N[C@@H](C)C(=O)N[C@H]1[C@@H]2CN(c3nc4c(cc3F)c(=O)c(C(=O)O)cn4-c3ccc(F)cc3F)C[C@@H]21` [ALATROFLOXACIN] yielded a DILI positive/negative in data set [1] of 1. Regarding `CCCN(CCC)C(=O)Cc1c(-c2ccc(Cl)cc2)nc2ccc(Cl)cn12` [ALPIDEM], the DILI positive/negative in data set [1] and in data set [2] was 1 throughout. For `O=C(O)COc1nn(Cc2ccccc2)c2ccccc12` [BENDAZAC], the DILI positive/negative in data set [1] (Liver) was 1. On the same count and under the same terms, then `CN(C)Cc1ccc(CSCCN/C(=C\[N+](=O)[O-])NCc2ccc3c(c2)OCO3)o1` [NIPEROTIDINE], with 1. For the molecule `CN1Cc2c(N)cccc2C(c2ccccc2)C1` (stereo not drawn) [NOMIFENSINE], the DILI positive/negative in data set [1] and in data set [2] was 1 throughout.

In data set [3], `CCN(CC)CCCC(C)Nc1c2ccc(Cl)cc2nc2ccc(OC)cc12` (stereo not drawn) [QUINACRINE] had a DILI positive/negative of 1. Turning to `CCc1oc2ccccc2c1C(=O)c1cc(Br)c(O)c(Br)c1` [BENZBROMARONE], the DILI positive/negative in data set [1] and in data set [2] was 1 each time. For `CC(C(=O)O)c1ccc2oc(-c3ccc(Cl)cc3)nc2c1` (stereo not drawn) [BENOXAPROFEN], the DILI positive/negative in data set [1] and in data set [2] was 1 in each case.

For the molecule `CC(C)NNC(=O)c1ccncc1` [IPRONIAZID], the DILI positive/negative in data set [1] and in data set [2] was 1 throughout. Turning to `NCCO` [MONOETHANOLAMINE], the DILI positive/negative in data set [1] is given as 0. As for `CN1c2c(oc(=O)n(-c3ccccn3)c2=O)-c2ccccc2S1(=O)=O` [DROXICAM], the DILI positive/negative in data set [1] was 1. `CN1CCCC(CN2c3ccccc3Sc3ccccc32)C1` (stereo not drawn) [MEPAZINE]: in data set [1], the DILI positive/negative is listed as 1. On the same count and under the same terms, then `CS(=O)(=O)CCNCc1ccc(-c2ccc3ncnc(Nc4ccc(OCc5cccc(F)c5)c(Cl)c4)c3c2)o1` [LAPATINIB], with 1.

On to `C1CCC(C(CC2CCCCN2)C2CCCCC2)CC1` (stereo not drawn) [PERHEXILINE], for which the DILI positive/negative in data set [1] and in data set [2] was 1 throughout. Consider `CC(NN)c1ccccc1` (stereo not drawn) [MEBANAZINE], for which the DILI positive/negative in data set [1] is given as 1. Take `Cc1nnc(C(C)C)n1[C@@H]1C[C@H]2CC[C@@H](C1)N2CC[C@H](NC(=O)C1CCC(F)(F)CC1)c1ccccc1` [MARAVIROC]: in data set [1], the DILI positive/negative amounted to 1. Still for that read-out and setting: as for `CC(=O)Oc1ccc(C(=C2CCCCC2)c2ccc(OC(C)=O)cc2)cc1` [CYCLOFENIL], the figure is 1. In data set [3], `COc1cc2c(c(OC)c1OC)-c1ccc(OC)c(=O)cc1[C@@H](NC(C)=O)CC2` [COLCHICINE] came in with a DILI positive/negative of 1. As to `Cc1nc([N+](=O)[O-])cn1-c1ccc([N+](=O)[O-])cc1` [NITREFAZOLE], the DILI positive/negative in data set [1] is 1. For the molecule `CC[N+](C)(C)c1cccc(O)c1.[Br-]` [EDROPHONIUM BROMIDE], in data set [1], the DILI positive/negative was 0. In the case of `C[C@H]1[C@H](c2ccccc2)OCCN1C` [PHENDIMETRAZINE], the DILI positive/negative in data set [1] was determined as 0.

The molecule `CO[C@@H]1O[C@H](CO)[C@H](O)[C@H](O[C@@H]2O[C@@H](C(=O)O)[C@@H](OC)[C@H](O)[C@H]2O)[C@H]1NC(C)=O` gave a DILI positive/negative in data set [1] of 1. Regarding `Cc1nc(C)c2c(n1)N(Cc1ccc(-c3ccccc3-c3nnn[nH]3)cc1)C(=O)CC2` [TASOSARTAN], the DILI positive/negative in data set [1] and in data set [2] was 1 throughout. In the case of `O=C(O)COc1ccc(C(=O)c2cccs2)c(Cl)c1Cl`, the DILI positive/negative in data set [1] and in data set [2] was 1 throughout. `O=C(O)CCCCCCNC1c2ccccc2CCc2ccccc21` [AMINEPTINE] gave a DILI positive/negative in data set [1] of 1. With `O=C1Nc2ccccc2C1(c1ccc(O)cc1)c1ccc(O)cc1` [OXYPHENISATINE], the DILI positive/negative in data set [1] was found to be 1. Consider `O=C(O)c1cc(-c2ccccc2)nc2ccccc12` [CINCHOPHEN], for which the DILI positive/negative in data set [1] and in data set [2] was 1 in each case. For `Nc1ccc(S(=O)(=O)Nc2nccs2)cc1` [SULFATHIAZOLE], the DILI positive/negative in data set [1] (Liver) is 1. Take `C=C1c2cccc(O)c2C(=O)C2=C(O)[C@]3(O)C(=O)C(C(N)=O)=C(O)[C@@H](N(C)C)[C@@H]3[C@@H](O)[C@H]12` [METHACYCLINE]: in data set [3], the DILI positive/negative came to 1. The molecule `CCO[C@@H]1OC(=O)C[C@@H]1NC(=O)[C@@H]1CCCN2C(=O)CC[C@H](NC(=O)c3nccc4ccccc34)C(=O)N12` had a DILI positive/negative in data set [1] of 1. For the molecule `CCC1(c2ccccc2)C(=O)NC(=O)NC1=O.CCCCCOC(CN1C(=O)N(CC(COCCCC)OC(N)=O)C(=O)C(CC)(c2ccccc2)C1=O)OC(N)=O.CCCCOCC(CN1C(=O)NC(=O)C(CC)(c2ccccc2)C1=O)OC(N)=O` (stereo not drawn) [TETRABAMATE], the DILI positive/negative in data set [1] came out at 1.

`Cc1ccc(Nc2c(F)cccc2Cl)c(CC(=O)O)c1` [LUMIRACOXIB]: the DILI positive/negative in data set [1] was 1.

Take `O=C(OCC(O)CO)c1ccccc1Nc1ccnc2cc(Cl)ccc12` (stereo not drawn) [GLAFENINE]: the DILI positive/negative in data set [1] (Liver) and in data set [2] (Liver) was 1 throughout.

`CC1=NN(c2ccc(C)c(C)c2)C(=O)/C1=N\Nc1cccc(-c2cccc(C(=O)O)c2)c1O` [ELTROMBOPAG] displayed a DILI positive/negative in data set [1] (Liver) of 1. Consider `O=C(c1cc(O)c(O)c(O)c1)c1ccc(O)c(O)c1O` [EXIFONE], for which, in data set [1], the DILI positive/negative was found to be 1. Same read-out and setting: then `CN(C)CCCC1c2ccccc2Nc2ccc(Cl)cc21` (stereo not drawn) [CLOMACRAN], with 1.

For the molecule `CN(C)C/C=C(/c1ccc(Br)cc1)c1cccnc1` [ZIMELDINE], the DILI positive/negative in data set [1] was determined as 1. Consider `Nc1c(CC(=O)O)cccc1C(=O)c1ccc(Br)cc1` [BROMFENAC], for which the DILI positive/negative in data set [1] and in data set [2] was 1 throughout. In data set [1], `CCOC(=O)CN[C@@H](C(=O)N1CC[C@H]1C(=O)NCc1ccc(/C(N)=N\O)cc1)C1CCCCC1` [XIMELAGATRAN] had a DILI positive/negative of 1. The same measure, in the same setting: then `NC(N)=Nc1nc(CSCCN/C=N/S(=O)(=O)c2ccc(Br)cc2)cs1` [EBROTIDINE], with 1; and `COc1cccc2c1[C@@H]1CN(CCCCn3c(=O)[nH]c4c(sc5ncc(-c6ccccc6)nc54)c3=O)C[C@@H]1CO2` [FIDUXOSIN], with 1.

The values above are taken from ChEMBL document CHEMBL1909294, “Translating clinical findings into knowledge in drug safety evaluation--drug induced liver injury prediction system (DILIps)” (PLoS Comput Biol, 2011).
